# Patent publication US8084459B2, “Substituted quinazolinones for treating neurological conditions” (Prana Biotechnology Ltd, priority 2004, dated 2011)
# Experiments:
# [1] = system: soluble and insoluble Aβ in the brain; assay: Assay 11 effect on Aβ deposits in transgenic animals (soluble and insoluble Aβ, Western blot); type: in vivo, APP2576 transgenic mouse; settings: APP2576 mice; for Tg mice Insoluble Fraction: % change compared with vehicle alone control mice: insoluble Aβ; for Tg mice Soluble Fraction: % change compared with vehicle alone control mice: soluble Aβ
# Aβ 1-42 = molecular target: T1, Aβ 1-42 (Homo sapiens, UniProt P05067); assay: Assay 1 Fluorometric H2O2 assay (peroxide); type: biochemical; settings: inhibition of H2O2 generation by Aβ with copper
# T1 construct: The reaction solutions contained Aβ 1-42 at concentrations
# Summary of the method: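 DCF fluorescence (ex 485/em 530 nm) after 60 min at 37 °C in PBS pH 7.4; Aβ 1-42 (50 nM–1 μM) with Cu-Gly (2:1 to Aβ), dopamine 5 μM or ascorbate, deacetylated DCF 100 μM, HRP 0.1 μM, and test compound. H2O2 quantified against H2O2 standards.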
# Aβ plaques = assay: Assay 14 transgenic mouse brain immunohistochemistry (plaque score); type: in vivo; settings: APP2576 mice
# Source text: Assay 14. Transgenic Mouse Brain Immunohistochemistry
# The APP2576 transgenic mouse (Hsiao et al., 1996) as referred to in Assay 11 is utilized in this assay. The contralateral formalin-fixed mouse brain tissue is coronally cut. Sections (10 μm) are taken from the corresponding sites and treated with 80% formic acid for antigen retrieval. The primary antibody used is monoclonal antibody 1E8, which recognizes epitopes between residues 18 and 22 of Aβ (SmithKline Beecham, UK). Immunoreactivity is developed with secondary antibody linked to horseradish peroxidase (using a 3,39-diaminobenzidinechromagen) (Dako) and alkaline phosphatase (using 5-bromo-4-chloro 3-indoxyl phosphate and nitroblue tetrazolium chloride chromagen) (Dako). Plaque abundance per section is assessed by two operators blinded to treatment according to the following scale:
# 1=plaques present but very sparse
# 2=several plaques present
# 3=numerous plaques visible in restricted areas
# 4=plaques abundant and not restricted to any particular area.
# Intermediate values eg 2.5 are assigned where applicable. Students ‘t’ test is used for comparisons between groups.
# [2] = system: Aβ1-42 toxicity in neuronal cortical cells; assay: Assay 3(c) Aβ neurotoxicity and neuroprotection (MTS); type: cell-based, mouse; settings: 20 uM Aβ1-42, cortical neurons, 4 days
# Description: Primary Cortical Neuronal Cultures
# Cortical cultures were prepared as previously described (White et al., 1998). Embryonic day 14 BL6Jx129sv mouse cortices were removed, dissected free of meninges and dissociated in 0.025% (wt/vol) trypsin. Dissociated cells were plated in 48 well culture plates at a density of 2×10^6 cells/mL in MEM with 25% (vol/vol) FCS and 5% (vol/vol) HS and incubated at 37° C., 2 hrs. Media was then replaced with Neurobasal media (Invitrogen Life Technologies) and B27 supplements (Invitrogen Life Technologies). Cultures were maintained at 37° C. in 5% CO2. Prior to experimentation, the culture medium was replaced with Neurobasal media and B27 minus antioxidants (Invitrogen Life Technologies).
# (c) Assay for Aβ Neurotoxicity and Aβ Neuroprotection
# Neuronal cortical cells were cultured for five days as per Assay 2. On day six the neurobasal (NB) media (Invitrogen Life Technologies) and B27 supplement (Invitrogen Life Technologies) were replaced with NB media and B27 supplement (no antioxidants). On day six, test compounds were individually added to the neuronal cell cultures:
# (§1) The test compounds were dissolved in 100% DMSO to a concentration of 2.5 mM (10 mM if excess compound was weighed out per vial—then diluted to 2.5 mM). 2.5 mM stock solution was serially diluted 1 in 10 to give working solutions of 250 uM, 25 uM, 2.5 uM.
# Aβ was initially dissolved in 20 mM NaOH to a concentration of 1 mM and sonicated for 5 minutes. The peptide was then diluted in H2O and 10×PBS to a final concentration of 200 uM Aβ in 1× PBS. The peptide was again sonicated for 5 minutes and then spun at 14000 rpm for 5 min and transferred to a fresh tube.
# as §1, with “in 10 [in NB media and B27 (no antioxidants)] to give” for “in 10 to give”, “2.5 uM. Test compounds were not added directly to cells, instead they were added to a 48 well ‘Drug Plate’ as comprised below:” for “2.5 uM.”
# Preparation of “Drug Plate”:
# Well 1: 515 ul NB+B27 (no antioxidant)*+24 ul 25 uM test compound+60 ul Aβ diluent**
# Well 2: 515 ul NB+B27 (no antioxidant)+24 ul 250 uM test compound+60 ul Aβ diluent
# Well 3: 515 ul NB+B27 (no antioxidant)+24 ul test compound diluent***+60 ul Aβ1-42
# Well 4: 515 ul NB+B27 (no antioxidant)+24 ul 2.5 uM test compound+60 ul Aβ1-42
# Well 5: 515 ul NB+B27 (no antioxidant)+24 ul 25 uM test compound+60 ul Aβ1-42
# Well 6: 515 ul NB+B27 (no antioxidant)+24 ul 250 uM test compound+60 ul Aβ1-42 diluent
# Well 7: 515 ul NB+B27 (no antioxidant)+24 ul test compound diluent+60 ul Aβ1-42 diluent
# Well 8: 600 ul NB+B27 (no antioxidant)
# The Drug Plate was incubated at 37° C. for 15 mins. 200 ul of each well was added in triplicate to the corresponding cell plate. The cell plate was incubated at 37 C, for 4 days.
# * NB media+B27 (no antioxidants)
# ** Aβ diluent 2 mM NaOH, 1×PBS
# *** PBT diluent 10% DMSO in NB+B27 (no antioxidant)
# On the 4th day after treating the cells the assay is completed by adding MTS to the cells.
# T1 sequence (P05067 672-713 limits assumed): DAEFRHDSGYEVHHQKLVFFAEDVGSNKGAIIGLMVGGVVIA
SMILES,Tg mice Insoluble Fraction: % change compared with vehicle alone control mice [1],Tg mice Soluble Fraction: % change compared with vehicle alone control mice [1],IC50 (Aβ 1-42),Plaques score: average count score per treatment group relative to the vehicle (sham) treated group (Aβ plaques),Assay 3(c) Neuroprotection (% inhibition of Abeta toxicity) [2]
O=c1c2c(Cl)cc(Cl)c(O)c2ncn1CCN1CCCC1 [Compound 1075],"+9% (insol),","−19% (sol),",730 nM,−22% (plaque),–
O=c1c2c(Cl)cc(Cl)c(O)c2ncn1Cc1ccccn1 [Compound 1077],Negligible effect on,"−17% (sol),",480 nM,−30% (plaque),–
Cc1nc(Cn2cnc3c(O)c(Cl)cc(Cl)c3c2=O)cs1 [Compound 1084],"−17% (insol),",−29% (sol),360 nM,−21% (plaque),2%
Cc1noc(C)c1Cn1cnc2c(O)c(Cl)cc(Cl)c2c1=O [Compound 1085],–,–,370 nM,–,7%
Br.CCCn1cnc2c(O)c(Cl)cc(Cl)c2c1=O [Compound 1097],+1% (insol),−22% (sol),280 nM,−3% (plaque),–
